The subject of one series is mice. Particulars: cited from earlier work.
Series [1] is described as follows: Conversion of Formula (I) compounds to HNK upon administration to a subject. Particulars: possible two-step process: hydrolysis under acid conditions, then enzymatic conversion by esterase action. The series is classed as in vivo. The text has this: In this prophetic example, exemplary compounds of Formula (I) yield HNK upon administration to a subject, such as a patient in a clinical trial, in one or more steps. For example, in one possible pathway illustrated in the following schematic, exemplary compounds of Formula (I) may yield HNK in a two-step process, consisting of hydrolysis in Step 1 under acid conditions, such as those in the stomach, and subsequent enzymatic conversion by esterase action.

Turning to `N[C@@]1(c2ccccc2Cl)CCC[C@@H](O)C1=O` [(2R,6R)-hydroxynorketamine], the antidepressant activity result in the series with mice is “has antidepressant activity”.
As for `CC(O)C1=N[C@@]2(c3ccccc3Cl)CCC[C@@H](O1)C2=O` (stereo partly drawn) [Example 2, (1R,5R)-5-(2-chlorophenyl)-3-(1-hydroxyethyl)-2-oxa-4 azabicyclo[3.3.1]non-3-en-9-one], the “conversion to HNK upon administration” value in series [1] is “may give rise to HNK and lactic acid”.

The values above are taken from patent publication US10738018B2, “Compounds for therapeutic use” (Dart NeuroScience, LLC, priority 2016, dated 2020).
